Results on one compound are retold here after patent US11273152B2, “TRPV2 antagonists” (Instituto de Medicina Molecular João Lobo Antunes, priority 2017, dated 2022).

One experiment deals with TRPV4 (Homo sapiens, UniProt Q9HBA0). Briefly: Fluorescence cell-based assay, TRPV4. To be noted: calcium 5 dye, duplicate. How it is done: (§1) The assays were performed at SB Discovery (Glasgow, UK) on a fee-for-service basis. Human TRP cells were trypsinised, counted and seeded in black, clear-bottomed 96 well plates at a density of 50,000 cells per well in 100 μL volume and incubated overnight. Next day, the cells were loaded with calcium 5 dye or membrane potential dye. TRPV1-5, TRPA1, TRPM2, TRPM3, and TRPM8 were tested using the calcium 5 dye. TRPC1, TRPC3-7, and TRPM4-5 were tested using the membrane potential dye. Both dye solutions were made up in HEPES buffered Hank's balanced salt solution (HBSS). Dye solution (90 μL) was added to the wells and incubated at 37° C. for 1 hour. Test compounds and standard inhibitors (10 μL) were then added to the wells and incubated at room temperature for 10 minutes. The plates were then placed in the flexstation and fluorescence monitored every 1.52 seconds. After 20 seconds agonist was added and the fluorescence monitored for 2 minutes at 485 nm/525 nm and 530 nm/565 nm, Ex/Em, for the calcium 5 dye and the membrane potential dye respectively. Controls-TRPV1: capsazepine; TRPV2: tranilast; TRPV3: ruthenium red; TRPV4: ruthenium red; TRPV5: Gd^3+; TRPA1, ruthenium red; TRPC1: Gd^3+; TRPC3: Pyr3; TRPC4: ML 204; TRPC5: ML 204; TRPC6: ML 204; TRPC7: SKF 96365; TRPM2: 2-APB; TRPM3: Mef acid; TRPM4: clotrimazole; TRPM5: TPPO; TRPM8: 2-APB. […]
TRPV4, sequence (Q9HBA0 whole entry): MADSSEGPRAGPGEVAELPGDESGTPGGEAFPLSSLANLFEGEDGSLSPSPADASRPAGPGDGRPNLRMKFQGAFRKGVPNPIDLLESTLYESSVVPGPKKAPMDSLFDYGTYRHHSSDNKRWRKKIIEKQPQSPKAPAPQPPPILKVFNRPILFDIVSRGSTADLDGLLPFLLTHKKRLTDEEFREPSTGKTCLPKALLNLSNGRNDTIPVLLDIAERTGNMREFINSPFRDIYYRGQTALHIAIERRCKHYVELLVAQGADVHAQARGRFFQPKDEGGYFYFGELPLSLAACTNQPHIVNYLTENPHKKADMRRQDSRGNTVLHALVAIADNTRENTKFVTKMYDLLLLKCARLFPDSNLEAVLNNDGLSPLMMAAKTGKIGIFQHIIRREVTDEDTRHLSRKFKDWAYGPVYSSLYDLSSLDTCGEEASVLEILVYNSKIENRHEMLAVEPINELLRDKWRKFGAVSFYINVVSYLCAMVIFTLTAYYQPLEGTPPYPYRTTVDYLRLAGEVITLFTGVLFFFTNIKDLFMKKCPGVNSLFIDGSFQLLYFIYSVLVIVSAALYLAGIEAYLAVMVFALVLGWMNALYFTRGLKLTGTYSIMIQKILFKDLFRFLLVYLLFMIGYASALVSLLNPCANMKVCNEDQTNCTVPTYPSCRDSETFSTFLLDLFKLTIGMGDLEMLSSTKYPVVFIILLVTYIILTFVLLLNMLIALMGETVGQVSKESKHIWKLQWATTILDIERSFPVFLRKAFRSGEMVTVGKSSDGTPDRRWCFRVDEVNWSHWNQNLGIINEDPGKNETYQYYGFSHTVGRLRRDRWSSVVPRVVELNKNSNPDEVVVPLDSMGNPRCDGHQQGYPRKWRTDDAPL

The target of another experiment is TRPV1 (Homo sapiens, UniProt Q8NER1). The experiment can be described thus: Fluorescence cell-based assay, TRPV1. Particulars: calcium 5 dye, duplicate. How it is done: as §1
TRPV1, sequence (Q8NER1 whole entry): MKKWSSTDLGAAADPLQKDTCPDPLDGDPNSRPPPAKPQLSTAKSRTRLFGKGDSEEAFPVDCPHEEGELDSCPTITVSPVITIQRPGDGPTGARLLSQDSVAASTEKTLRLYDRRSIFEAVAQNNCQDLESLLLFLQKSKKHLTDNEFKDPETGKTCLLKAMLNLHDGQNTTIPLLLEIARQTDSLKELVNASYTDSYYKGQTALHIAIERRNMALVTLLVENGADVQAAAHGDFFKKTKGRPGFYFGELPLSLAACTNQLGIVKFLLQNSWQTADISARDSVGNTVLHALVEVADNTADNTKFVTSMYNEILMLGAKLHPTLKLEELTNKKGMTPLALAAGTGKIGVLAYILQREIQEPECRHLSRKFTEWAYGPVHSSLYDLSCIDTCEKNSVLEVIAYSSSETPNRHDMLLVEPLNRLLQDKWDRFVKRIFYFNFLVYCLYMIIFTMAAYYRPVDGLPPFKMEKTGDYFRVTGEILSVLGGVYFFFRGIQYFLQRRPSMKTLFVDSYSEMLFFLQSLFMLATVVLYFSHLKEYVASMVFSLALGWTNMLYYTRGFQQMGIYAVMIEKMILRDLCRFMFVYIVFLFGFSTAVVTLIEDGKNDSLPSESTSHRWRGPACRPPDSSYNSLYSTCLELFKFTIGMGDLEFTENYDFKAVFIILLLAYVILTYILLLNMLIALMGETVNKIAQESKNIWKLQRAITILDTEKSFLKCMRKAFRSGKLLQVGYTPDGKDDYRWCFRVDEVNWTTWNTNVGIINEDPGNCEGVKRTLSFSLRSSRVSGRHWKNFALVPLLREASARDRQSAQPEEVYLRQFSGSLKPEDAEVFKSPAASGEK
The target of experiment [1] is T1, TRPV2 (Homo sapiens, UniProt Q9Y5S1).
T1 sequence (Q9Y5S1 1-764): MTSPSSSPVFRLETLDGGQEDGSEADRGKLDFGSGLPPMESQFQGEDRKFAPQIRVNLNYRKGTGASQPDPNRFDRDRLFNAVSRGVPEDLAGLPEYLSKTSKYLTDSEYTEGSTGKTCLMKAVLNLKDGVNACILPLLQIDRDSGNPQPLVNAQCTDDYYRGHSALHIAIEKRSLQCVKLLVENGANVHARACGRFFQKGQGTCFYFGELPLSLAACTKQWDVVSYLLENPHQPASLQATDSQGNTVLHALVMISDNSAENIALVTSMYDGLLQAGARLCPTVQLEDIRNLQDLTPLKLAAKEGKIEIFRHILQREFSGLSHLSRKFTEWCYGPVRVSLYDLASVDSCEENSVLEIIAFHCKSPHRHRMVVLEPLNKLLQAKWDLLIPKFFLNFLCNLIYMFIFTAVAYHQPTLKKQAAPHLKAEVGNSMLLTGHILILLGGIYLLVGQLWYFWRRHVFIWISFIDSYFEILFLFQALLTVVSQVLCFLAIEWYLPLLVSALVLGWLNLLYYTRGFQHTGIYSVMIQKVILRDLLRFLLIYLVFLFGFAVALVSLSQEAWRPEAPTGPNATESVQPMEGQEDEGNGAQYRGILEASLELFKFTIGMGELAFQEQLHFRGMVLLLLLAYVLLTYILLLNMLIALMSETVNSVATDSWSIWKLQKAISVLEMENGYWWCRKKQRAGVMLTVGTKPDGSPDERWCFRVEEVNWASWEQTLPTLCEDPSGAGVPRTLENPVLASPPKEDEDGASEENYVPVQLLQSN
The experiment can be described thus: Co-incubation experiments with cannabidiol (mode of binding). In kind it is cell-based.

The target in another experiment is TRPC5 (Homo sapiens, UniProt Q9UL62). Briefly: Fluorescence cell-based assay, TRPC5. To be noted: membrane potential dye, duplicate. The method, then:
as §1

Experiment [2] relates to human, ligand-gated TRP channels. The experiment can be described thus: TRP channel panel screen, activation. The format is cell-based. Particulars: TRPV, TRPC, TRPM, TRPA panel.
A further experiment deals with TRPC6 (Homo sapiens, UniProt Q9Y210). The experiment can be described thus: Fluorescence cell-based assay, TRPC6. To be noted: membrane potential dye, duplicate. The method, then:
as §1

The target of a further experiment is TRPM8 (Homo sapiens, UniProt Q7Z2W7). The experiment can be described thus: Fluorescence cell-based assay, TRPM8. To be noted: calcium 5 dye, duplicate. How it is done: as §1
TRPM8, sequence (Q7Z2W7 whole entry): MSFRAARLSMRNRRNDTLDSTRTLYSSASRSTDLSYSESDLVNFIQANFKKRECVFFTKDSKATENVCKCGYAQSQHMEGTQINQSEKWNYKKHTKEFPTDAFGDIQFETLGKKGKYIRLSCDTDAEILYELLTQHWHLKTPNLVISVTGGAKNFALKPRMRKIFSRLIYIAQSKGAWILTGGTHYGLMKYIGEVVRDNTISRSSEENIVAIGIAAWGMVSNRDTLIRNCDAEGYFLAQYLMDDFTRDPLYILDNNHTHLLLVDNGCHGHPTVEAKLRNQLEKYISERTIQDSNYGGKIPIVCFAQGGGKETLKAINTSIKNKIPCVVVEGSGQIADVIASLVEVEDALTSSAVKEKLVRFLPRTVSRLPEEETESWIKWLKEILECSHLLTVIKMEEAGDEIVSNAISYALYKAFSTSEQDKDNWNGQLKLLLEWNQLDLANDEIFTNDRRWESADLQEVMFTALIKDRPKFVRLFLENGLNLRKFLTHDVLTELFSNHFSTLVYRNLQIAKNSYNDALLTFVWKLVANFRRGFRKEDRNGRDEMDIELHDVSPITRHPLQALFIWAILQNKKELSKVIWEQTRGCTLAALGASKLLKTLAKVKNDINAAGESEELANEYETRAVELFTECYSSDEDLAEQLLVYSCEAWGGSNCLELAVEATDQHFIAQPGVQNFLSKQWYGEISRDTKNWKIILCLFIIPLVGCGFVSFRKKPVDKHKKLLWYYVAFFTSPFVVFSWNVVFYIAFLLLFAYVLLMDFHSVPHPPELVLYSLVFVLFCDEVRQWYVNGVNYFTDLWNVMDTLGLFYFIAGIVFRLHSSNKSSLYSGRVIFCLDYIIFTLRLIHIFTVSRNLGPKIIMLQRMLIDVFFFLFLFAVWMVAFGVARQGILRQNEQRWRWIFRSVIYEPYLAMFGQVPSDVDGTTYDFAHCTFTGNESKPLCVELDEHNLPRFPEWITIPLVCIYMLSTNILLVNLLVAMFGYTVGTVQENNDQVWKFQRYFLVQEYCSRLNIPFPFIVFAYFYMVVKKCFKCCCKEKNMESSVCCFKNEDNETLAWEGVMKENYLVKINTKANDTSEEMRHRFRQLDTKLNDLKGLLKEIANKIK
Another experiment concerns the target TRPM4 (Homo sapiens, UniProt Q8TD43). Briefly: Fluorescence cell-based assay, TRPM4. To be noted: membrane potential dye, duplicate. The method, then: as §1
Another experiment concerns HEK293 cells. Briefly: Viability of HEK cells transiently transfected with TRPV2. The format is cell-based, human. How it is done:
75,000 HEK293 cells were seeded in each well of a 24 well plate. The next day cells were transfected with hTRPV2-RFP plasmid (kindly gifted by Prof. Itaru Kojima, Gunma University, Japan). After incubating for 24 hours the media was changed and PL was added at 5 and 10 μM. 24 hours later cell viability was assessed using CellTitre-Blue (Promega) or Annexin V, 7-AAD staining. Transfection efficiency was assessed using flow cytometry.
Cells were harvested from plates by washing with media (HEK293) or TrypLE express (Gibco). The media was removed after centrifugation and the cells were washed twice with binding buffer before being incubated for 30 minutes at room temperature with Annexin V-APC (eBiosciences, 1:100) and 7-AAD (Pharmigen, 1:50). Samples were diluted with binding buffer and analyzed by flow cytometry using BD LSRFortessa X-20 with FACS Diva software. Samples with single stains were used as controls.

For experiment [3], the target named is T1, TRPV2. The experiment can be described thus: Intracellular calcium imaging (Fura-2 AM) in HepG2 cells. The format is cell-based. Particulars: 1 at 5 μM. How it is done: Cells (ATCC) were grown to 50% confluency in DMEM (Gibco) supplemented with 10% FBS (Gibco), GlutaMax (Gibco), MEM and NEAA (Gibco), 4.5 g/L glucose and 0.11 g/L sodium pyruvate. Cells were seeded in μ-ibidi 8 well plates and transfected with TRPV2-RFP^34 (kindly gifted by Prof. Itaru Kojimu Gunma University, Japan). After 48 h of incubation, cells were subjected to calcium imaging. Intracellular calcium measurements were performed with Fura-2 AM (Life Technologies) and modified from previously described studies.^12 In short, 1 hour before the measurement, cells were loaded with 5 μM Fura-2-AM for 45 minutes. Cell medium was replaced by Tyrod's solution (119 mM NaCl, 5 mM KCl, 2 mM CaCl2, 2 mM MgCl2, 6 g/L glucose, 25 mM HEPES pH 7.4). Simultaneously, the respective treatment was added to the cells (final concentration of 1% DMSO (control), 5 μM piperlongumine and 10 μM tranilast) and cells were allowed to re-adjustment for 15 minutes. Fura-2 AM emissions from 340 nm and 380 nm excitation were recorded for 1 minute before TRPV2 was activated by addition of 4 μM or 20 μM cannabidiol (CBD). Image analysis was done using the MetaFluor Analyst software. The statistical analysis was performed with astatsa.com. After calcium imaging acquisition, the cells were immediately fixed with 4% paraformaldehyde for 15 min. […]
In general terms: A change in cytosolic calcium serves as a functional read-out for many receptors and channels.

SMILES strings stand for the structures. Entries after “also recorded” stand apart in the source; their conditions may differ. Where only a bound is given, the exact number is not on record here.

TRPC6, sequence (Q9Y210 whole entry): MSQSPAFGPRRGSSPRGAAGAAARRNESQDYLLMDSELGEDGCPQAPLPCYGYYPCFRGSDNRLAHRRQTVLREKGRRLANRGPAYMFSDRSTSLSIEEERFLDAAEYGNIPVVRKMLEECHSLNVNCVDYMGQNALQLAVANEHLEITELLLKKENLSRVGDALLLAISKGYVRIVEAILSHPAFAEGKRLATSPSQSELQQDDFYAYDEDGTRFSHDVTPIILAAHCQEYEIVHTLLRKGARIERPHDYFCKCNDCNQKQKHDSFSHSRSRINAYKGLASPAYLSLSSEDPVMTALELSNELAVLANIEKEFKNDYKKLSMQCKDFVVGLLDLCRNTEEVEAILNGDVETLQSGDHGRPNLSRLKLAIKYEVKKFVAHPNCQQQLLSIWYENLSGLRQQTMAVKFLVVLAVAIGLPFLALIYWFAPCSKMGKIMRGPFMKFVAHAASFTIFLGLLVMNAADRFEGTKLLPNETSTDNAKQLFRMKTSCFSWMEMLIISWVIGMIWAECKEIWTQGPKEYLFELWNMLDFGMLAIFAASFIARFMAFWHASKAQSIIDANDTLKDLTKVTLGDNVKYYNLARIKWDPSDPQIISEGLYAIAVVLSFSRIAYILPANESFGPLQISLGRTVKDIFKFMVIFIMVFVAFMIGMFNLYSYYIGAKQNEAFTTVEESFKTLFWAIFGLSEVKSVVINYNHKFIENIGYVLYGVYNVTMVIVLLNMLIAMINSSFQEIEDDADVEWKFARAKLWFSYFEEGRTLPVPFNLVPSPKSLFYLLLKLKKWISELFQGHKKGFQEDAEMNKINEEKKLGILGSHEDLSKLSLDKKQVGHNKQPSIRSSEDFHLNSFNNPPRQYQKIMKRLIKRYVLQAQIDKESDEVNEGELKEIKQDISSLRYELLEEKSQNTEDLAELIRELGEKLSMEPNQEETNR
TRPM4, sequence (Q8TD43 whole entry): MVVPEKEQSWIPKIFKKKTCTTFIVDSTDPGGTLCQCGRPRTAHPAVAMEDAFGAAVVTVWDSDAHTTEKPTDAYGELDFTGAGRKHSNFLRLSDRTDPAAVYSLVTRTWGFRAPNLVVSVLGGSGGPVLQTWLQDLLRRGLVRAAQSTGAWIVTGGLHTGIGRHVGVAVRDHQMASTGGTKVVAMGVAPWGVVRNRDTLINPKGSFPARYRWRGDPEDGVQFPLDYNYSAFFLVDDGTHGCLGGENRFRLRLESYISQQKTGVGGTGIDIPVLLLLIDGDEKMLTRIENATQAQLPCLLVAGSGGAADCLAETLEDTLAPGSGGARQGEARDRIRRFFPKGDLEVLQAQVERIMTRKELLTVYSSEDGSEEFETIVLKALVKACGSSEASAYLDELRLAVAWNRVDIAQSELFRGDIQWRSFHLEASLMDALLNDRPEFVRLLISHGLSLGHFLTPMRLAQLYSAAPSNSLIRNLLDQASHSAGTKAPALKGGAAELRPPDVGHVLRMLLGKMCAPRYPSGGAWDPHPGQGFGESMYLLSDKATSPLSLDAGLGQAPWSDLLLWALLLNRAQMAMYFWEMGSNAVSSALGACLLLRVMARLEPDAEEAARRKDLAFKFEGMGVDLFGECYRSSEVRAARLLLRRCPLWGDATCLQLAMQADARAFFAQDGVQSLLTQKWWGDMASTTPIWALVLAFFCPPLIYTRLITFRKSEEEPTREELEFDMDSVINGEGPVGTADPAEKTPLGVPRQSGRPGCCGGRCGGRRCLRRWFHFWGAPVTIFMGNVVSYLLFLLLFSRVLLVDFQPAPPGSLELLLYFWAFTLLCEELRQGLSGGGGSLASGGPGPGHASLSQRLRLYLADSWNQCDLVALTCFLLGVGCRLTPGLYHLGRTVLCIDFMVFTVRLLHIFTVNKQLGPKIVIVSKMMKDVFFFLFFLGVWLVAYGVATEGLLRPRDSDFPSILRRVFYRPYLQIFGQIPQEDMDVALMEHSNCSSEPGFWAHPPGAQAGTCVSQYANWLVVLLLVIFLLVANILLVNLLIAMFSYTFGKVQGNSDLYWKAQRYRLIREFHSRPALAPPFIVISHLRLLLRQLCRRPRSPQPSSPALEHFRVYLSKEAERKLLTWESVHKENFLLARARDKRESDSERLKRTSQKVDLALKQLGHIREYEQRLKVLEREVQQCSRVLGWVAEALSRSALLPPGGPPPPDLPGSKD

One may read the IC50 as the concentration that inhibits the measured activity by half. On to `COc1cc(/C=C/C(=O)N2CCC=CC2=O)cc(OC)c1OC` [Compound 1, piperlongumine], for which the IC50 at TRPV4, on TRPV1, against TRPC5, against TRPC6, on TRPM8 and on TRPM4 was > 100 µM in each case. Also, the Mode of antagonism result at TRPV2 [1] (EC50 curves of cannabidiol with increasing concentrations of 1) is reported as “non-competitive (allosteric) antagonism”. Moreover, the “Concentration of 1 above which apparent vmax of cannabidiol is reduced” value at TRPV2 [1] (Michaelis-Menten analysis) is “higher than 5 pM”. For the same compound, the “Activation of the assayed TRP channels” value in [2] was “did not activate any of the assayed channels”. Besides, in the experiment with HEK293 cells, the “Viability of TRPV2-transfected cells vs non-transfected controls” value was “identical result”. For the same compound, the “Inhibition of CBD evoked calcium influx in HepG2 cells” value on TRPV2 [3] (CBD 4 μM) was “No statistically significant difference is observed between all samples”; on TRPV2 [3] (CBD 20 μM, 120 s post stimulation) it was “significantly inhibited; also recorded: significant difference between control and 1 (p<0.01)”.
